According to US20100298141A1, “SUBSTITUTED PYRIDINE N-OXIDE HERBICIDES” (E. I. DU PONT DE NEMOURS AND COMPANY, priority 2007, published 2010):

Legend:
green foxtail = test: Test C pre-/postemergence test; assay type: in vivo, Setaria viridis
Outline: (§1)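 Test chemicals were formulated with surfactant in a non-phytotoxic solvent and sprayed both on freshly planted seeds (preemergence) and on 1- to 4-leaf plants of 2–18 cm (postemergence). Flooded-paddy pots received compound directly into 3 cm of standing water, maintained for the test.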

wheat = test: Test C pre-/postemergence test; assay type: in vivo, Triticum aestivum
Outline: as §1

umbrella sedge = test: Test C flooded paddy test; assay type: in vivo, Cyperus difformis; conditions: Flood
Outline: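 Flooded 3 cm over soil; compound into paddy water; depth kept constant. Greenhouse 13–15 d.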

blackgrass = test: Test C pre-/postemergence test; assay type: in vivo, Alopecurus myosuroides
Outline: as §1

woolly cupgrass = test: Test C pre-/postemergence test; assay type: in vivo, Eriochloa villosa
Outline: as §1

Italian ryegrass = test: Test C pre-/postemergence test; assay type: in vivo, Lolium multiflorum
Outline: as §1

soybean = test: Test C pre-/postemergence test; assay type: in vivo, Glycine max
Outline: as §1

kochia = test: Test C pre-/postemergence test; assay type: in vivo, Kochia scoparia
Outline: as §1

crabgrass = test: Test C pre-/postemergence test; assay type: in vivo, Digitaria sanguinalis
Outline: as §1

pigweed = test: Test C pre-/postemergence test; assay type: in vivo, Amaranthus retroflexus
Outline: as §1

morningglory [1] = test: Test A pre-/postemergence greenhouse test; assay type: in vivo, Ipomoea spp.; conditions: for Plant response rating, Morningglory: 0 to 100 scale where 0 is no effect and 100 is complete control; for Morningglory plant response rating: 0 to 100 scale
Outline: (§2)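 Two application timings were run side by side in the greenhouse. Before emergence, compound went onto the soil surface of loam–sand pots as a directed spray; after emergence, plants at 2–10 cm and the one- to two-leaf stage were treated. Visual injury versus controls was rated at approximately day ten.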

yellow nutsedge = test: Test C pre-/postemergence test; assay type: in vivo, Cyperus esculentus
Outline: as §1

barnyardgrass = test: Test A pre-/postemergence greenhouse test; assay type: in vivo, Echinochloa crus-galli; conditions: for Plant response rating, Barnyardgrass: 0 to 100 scale where 0 is no effect and 100 is complete control; for Barnyardgrass plant response rating: 0 to 100 scale
Outline: as §2

[2] = test system: common (oilseed) sunflower; test: Test C pre-/postemergence test; assay type: in vivo, Helianthus annuus
Outline: as §1

morningglory [3] = test: Test C pre-/postemergence test; assay type: in vivo, Ipomoea coccinea
Outline: as §1

cocklebur = test: Test C pre-/postemergence test; assay type: in vivo, Xanthium strumarium
Outline: as §1

corn = test: Test C pre-/postemergence test; assay type: in vivo, Zea mays
Outline: as §1

[4] = 62 g ai/ha, Preemergence, scale 0 to 100
[5] = 125 g ai/ha, preemergence, scale 0 (no effect) to 100 (complete control)
[6] = Preemergence, 31 g ai/ha, scale 0 to 100 (0 no effect, 100 complete control)
[7] = preemergence, 250 g ai/ha, scale 0 (no effect) to 100 (complete control)
[8] = Postemergence, 500 g ai/ha, 0 is no effect, 100 is complete control
[9] = Preemergence, 125 g ai/ha, 0 no effect, 100 complete control
[10] = 31 g ai/ha, Preemergence, scale 0 to 100
[11] = 62 g ai/ha, preemergence, scale 0 (no effect) to 100 (complete control)
[12] = preemergence, 125 g ai/ha, scale 0 (no effect) to 100 (complete control)
[13] = Postemergence, 125 g ai/ha, 0 is no effect, 100 is complete control

In the case of `CCc1cc[n+]([O-])c([S+]([O-])Cc2c(C(F)(F)F)nn(C)c2OCC(F)(F)F)c1` (centres unmarked) [Compound 59], the “Foxtail, Green plant response rating” value (green foxtail; [4]) is reported as 95, the “Foxtail, Green plant response rating” value (green foxtail; [5]) is reported as 100 and the “Plant response rating, Foxtail, Green” value (green foxtail; [6]) is reported as 0. For the same compound, the “Foxtail, Green plant response rating” value (green foxtail; [7]) was 100, the “Wheat plant response rating” value (wheat; [4]) was 40 and the “Wheat plant response rating” value (wheat; [5]) was 85. For the same compound, the “Plant response rating, Wheat” value (wheat; [6]) was 30, the “Wheat plant response rating” value (wheat; [7]) was 95 and the “Plant response rating, Sedge, Umbrella” value (umbrella sedge; 62 g ai/ha, scale 0 to 100 (0 no effect, 100 complete control)) was 80. The “Plant response rating, Sedge, Umbrella” value (umbrella sedge; 250 g ai/ha, scale 0 to 100, 0 no effect, 100 complete control, 13 to 15 days) was 100, the “Blackgrass plant response rating” value (blackgrass; [4]) was 95 and the “Blackgrass plant response rating” value (blackgrass; [5]) was 95. For the same compound, the “Plant response rating, Blackgrass” value (blackgrass; [6]) was 60, the “Blackgrass plant response rating” value (blackgrass; [7]) was 100 and the “Cupgrass, Woolly plant response rating” value (woolly cupgrass; [4]) was 80. For the same compound, the “Cupgrass, Woolly plant response rating” value (woolly cupgrass; [5]) was 80, the “Plant response rating, Cupgrass, Woolly” value (woolly cupgrass; [6]) was 0 and the “Cupgrass, Woolly plant response rating” value (woolly cupgrass; [7]) was 100. For the same compound, the “Ryegrass, Italian plant response rating” value (Italian ryegrass; [4]) was 55, the “Ryegrass, Italian plant response rating” value (Italian ryegrass; [5]) was 80 and the “Plant response rating, Ryegrass, Italian” value (Italian ryegrass; [6]) was 30. For the same compound, the “Ryegrass, Italian plant response rating” value (Italian ryegrass; [7]) was 95, the “Soybean plant response rating” value (soybean; [4]) was 10 and the “Soybean plant response rating” value (soybean; [5]) was 100. For the same compound, the “Soybean plant response rating” value (soybean; [7]) was 100, the “Kochia plant response rating” value (kochia; [4]) was 70 and the “Kochia plant response rating” value (kochia; [5]) was 100. The “Plant response rating, Kochia” value (kochia; [6]) was 0, the “Kochia plant response rating” value (kochia; [7]) was 100 and the “Crabgrass, Large plant response rating” value (crabgrass; [4]) was 80. The “Crabgrass, Large plant response rating” value (crabgrass; [5]) was 100, the “Plant response rating, Crabgrass, Large” value (crabgrass; [6]) was 70 and the “Crabgrass, Large plant response rating” value (crabgrass; [7]) was 100. For the same compound, the “Pigweed plant response rating” value (pigweed; [4]) was 100, the “Pigweed plant response rating” value (pigweed; [5]) was 100 and the “Plant response rating, Pigweed” value (pigweed; [6]) was 0. The “Pigweed plant response rating” value (pigweed; [7]) was 100, the “Plant response rating, Morningglory” value (morningglory [1]; Postemergence, 125 g ai/ha) was 50 and the “Morningglory plant response rating” value (morningglory [1]; [8]) was 90. The “Morningglory plant response rating” value (morningglory [1]; [9]) was 70, the “Plant response rating, Morningglory” value (morningglory [1]; Preemergence, 500 g ai/ha) was 100 and the “Nutsedge, Yellow plant response rating” value (yellow nutsedge; [4]) was 30. The “Nutsedge, Yellow plant response rating” value (yellow nutsedge; [5]) was 85, the “Plant response rating, Nutsedge, Yellow” value (yellow nutsedge; [6]) was 0 and the “Nutsedge, Yellow plant response rating” value (yellow nutsedge; [7]) was 95. For the same compound, the “Plant response rating, Barnyardgrass” value (barnyardgrass; Postemergence, 125 g ai/ha) was 80, the “Barnyardgrass plant response rating” value (barnyardgrass; [8]) was 90 and the “Barnyardgrass plant response rating” value (barnyardgrass; [9]) was 100. For the same compound, the “Plant response rating, Barnyardgrass” value (barnyardgrass; Preemergence, 500 g ai/ha) was 100, the “Sunflower plant response rating” value [2, 4] was 85 and the “Sunflower plant response rating” value [2, 5] was 85. The “Plant response rating, Sunflower” value [2, 6] was 40, the “Sunflower plant response rating” value [2, 7] was 100 and the “Morningglory plant response rating” value (morningglory [3]; [4]) was 100. For the same compound, the “Morningglory plant response rating” value (morningglory [3]; [5]) was 100, the “Plant response rating, Morningglory” value (morningglory [3]; [6]) was 50 and the “Morningglory plant response rating” value (morningglory [3]; [7]) was 100. For the same compound, the “Cocklebur plant response rating” value (cocklebur; [4]) was 0, the “Cocklebur plant response rating” value (cocklebur; [5]) was 30 and the “Plant response rating, Cocklebur” value (cocklebur; [6]) was 0. The “Cocklebur plant response rating” value (cocklebur; [7]) was 80, the “Corn plant response rating” value (corn; [4]) was 45 and the “Corn plant response rating” value (corn; [5]) was 100. For the same compound, the “Plant response rating, Corn” value (corn; [6]) was 25 and the “Corn plant response rating” value (corn; [7]) was 100.
`CC(c1c(C(F)(F)F)nn(C)c1Cl)S(=O)(=O)c1cccc[n+]1[O-]` (centres unmarked) [Compound 10] was tested, and the “Foxtail, Green plant response rating” value (green foxtail; [10]) was 70, the “Foxtail, Green plant response rating” value (green foxtail; [11]) was 85 and the “Plant response rating (0 to 100), Foxtail, Green” value (green foxtail; Preemergence, 250 g ai/ha) was 100. For the same compound, the “Foxtail, Green plant response rating” value (green foxtail; [12]) was 100, the “Wheat plant response rating” value (wheat; [11]) was 35 and the “Plant response rating (0 to 100), Wheat” value (wheat; Preemergence, 250 g ai/ha) was 80. For the same compound, the “Wheat plant response rating” value (wheat; [12]) was 60, the “Plant response rating, Sedge, Umbrella” value (umbrella sedge; 31 g ai/ha, scale 0 to 100 (0 no effect, 100 complete control)) was 40 and the “Plant response rating, Sedge, Umbrella” value (umbrella sedge; 62 g ai/ha, scale 0 to 100, 0 no effect, 100 complete control, 13 to 15 days) was 80. The “Plant response rating, Sedge, Umbrella” value (umbrella sedge; 125 g ai/ha, scale 0 to 100, 0 no effect, 100 complete control, 13 to 15 days) was 90, the “Plant response rating, Sedge, Umbrella” value (umbrella sedge; 250 g ai/ha, scale 0 to 100 (0 no effect, 100 complete control)) was 90 and the “Blackgrass plant response rating” value (blackgrass; [10]) was 0. The “Blackgrass plant response rating” value (blackgrass; [11]) was 70, the “Plant response rating (0 to 100), Blackgrass” value (blackgrass; Preemergence, 250 g ai/ha) was 100 and the “Blackgrass plant response rating” value (blackgrass; [12]) was 98. For the same compound, the “Cupgrass, Woolly plant response rating” value (woolly cupgrass; [10]) was 75, the “Cupgrass, Woolly plant response rating” value (woolly cupgrass; [11]) was 75 and the “Plant response rating (0 to 100), Cupgrass, Woolly” value (woolly cupgrass; Preemergence, 250 g ai/ha) was 100. The “Cupgrass, Woolly plant response rating” value (woolly cupgrass; [12]) was 100, the “Ryegrass, Italian plant response rating” value (Italian ryegrass; [10]) was 20 and the “Ryegrass, Italian plant response rating” value (Italian ryegrass; [11]) was 40. The “Plant response rating (0 to 100), Ryegrass, Italian” value (Italian ryegrass; Preemergence, 250 g ai/ha) was 98, the “Ryegrass, Italian plant response rating” value (Italian ryegrass; [12]) was 90 and the “Soybean plant response rating” value (soybean; [10]) was 0. For the same compound, the “Soybean plant response rating” value (soybean; [11]) was 0, the “Plant response rating (0 to 100), Soybean” value (soybean; Preemergence, 250 g ai/ha) was 10 and the “Soybean plant response rating” value (soybean; [12]) was 5. The “Kochia plant response rating” value (kochia; [10]) was 0, the “Kochia plant response rating” value (kochia; [11]) was 40 and the “Plant response rating (0 to 100), Kochia” value (kochia; Preemergence, 250 g ai/ha) was 100. The “Kochia plant response rating” value (kochia; [12]) was 80, the “Crabgrass, Large plant response rating” value (crabgrass; [10]) was 100 and the “Crabgrass, Large plant response rating” value (crabgrass; [11]) was 100. For the same compound, the “Plant response rating (0 to 100), Crabgrass, Large” value (crabgrass; Preemergence, 250 g ai/ha) was 100, the “Crabgrass, Large plant response rating” value (crabgrass; [12]) was 100 and the “Pigweed plant response rating” value (pigweed; [10]) was 70. The “Pigweed plant response rating” value (pigweed; [11]) was 100, the “Plant response rating (0 to 100), Pigweed” value (pigweed; Preemergence, 250 g ai/ha) was 100 and the “Pigweed plant response rating” value (pigweed; [12]) was 100. For the same compound, the “Morningglory plant response rating” value (morningglory [1]; [13]) was 20, the “Morningglory plant response rating” value (morningglory [1]; [8]) was 90 and the “Morningglory plant response rating” value (morningglory [1]; [9]) was 80. For the same compound, the “Plant response rating, Morningglory” value (morningglory [1]; Preemergence, 500 g ai/ha) was 90, the “Nutsedge, Yellow plant response rating” value (yellow nutsedge; [10]) was 60 and the “Nutsedge, Yellow plant response rating” value (yellow nutsedge; [11]) was 98. For the same compound, the “Plant response rating (0 to 100), Nutsedge, Yellow” value (yellow nutsedge; Preemergence, 250 g ai/ha) was 100, the “Nutsedge, Yellow plant response rating” value (yellow nutsedge; [12]) was 98 and the “Barnyardgrass plant response rating” value (barnyardgrass; [13]) was 80. The “Barnyardgrass plant response rating” value (barnyardgrass; [8]) was 90, the “Barnyardgrass plant response rating” value (barnyardgrass; [9]) was 100 and the “Plant response rating, Barnyardgrass” value (barnyardgrass; Preemergence, 500 g ai/ha) was 100. The “Sunflower plant response rating” value [2, 11] was 0, the “Plant response rating (0 to 100), Sunflower” value ([2]; Preemergence, 250 g ai/ha) was 100 and the “Sunflower plant response rating” value [2, 12] was 85. For the same compound, the “Morningglory plant response rating” value (morningglory [3]; [10]) was 85, the “Morningglory plant response rating” value (morningglory [3]; [11]) was 100 and the “Plant response rating (0 to 100), Morningglory” value (morningglory [3]; Preemergence, 250 g ai/ha) was 100. The “Morningglory plant response rating” value (morningglory [3]; [12]) was 100, the “Cocklebur plant response rating” value (cocklebur; [10]) was 0 and the “Cocklebur plant response rating” value (cocklebur; [11]) was 0. For the same compound, the “Plant response rating (0 to 100), Cocklebur” value (cocklebur; Preemergence, 250 g ai/ha) was 0, the “Cocklebur plant response rating” value (cocklebur; [12]) was 0 and the “Corn plant response rating” value (corn; [10]) was 0. For the same compound, the “Corn plant response rating” value (corn; [11]) was 5, the “Plant response rating (0 to 100), Corn” value (corn; Preemergence, 250 g ai/ha) was 95 and the “Corn plant response rating” value (corn; [12]) was 60.
